Source: patent US7799821B2, “Therapeutic compounds” (Allergan, Inc., priority 2004, dated 2010)
Like-named read-outs stand apart in the source and are kept apart here.

Assays:
[1] = molecular target: T1, hEP3A/Gqi5 (Homo sapiens, UniProt P43115); test: FLIPR calcium signal, hEP3A; type: cell-based
T1 construct: expressed in transfected cells; host or cells: HEK-293(EBNA)
T1 sequence (P43115 1-390): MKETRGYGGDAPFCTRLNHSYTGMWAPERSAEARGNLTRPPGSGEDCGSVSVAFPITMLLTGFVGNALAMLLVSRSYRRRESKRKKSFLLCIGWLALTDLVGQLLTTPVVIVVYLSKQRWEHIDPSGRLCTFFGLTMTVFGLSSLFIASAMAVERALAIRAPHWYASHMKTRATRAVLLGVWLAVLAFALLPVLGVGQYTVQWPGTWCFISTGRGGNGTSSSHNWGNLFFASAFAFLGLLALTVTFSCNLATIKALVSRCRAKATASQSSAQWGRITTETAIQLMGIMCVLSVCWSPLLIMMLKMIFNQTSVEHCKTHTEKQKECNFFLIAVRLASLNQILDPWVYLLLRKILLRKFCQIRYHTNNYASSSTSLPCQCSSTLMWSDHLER
Procedure, shortened: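 HEK-293(EBNA) cells stably expressing the recombinant human receptor were loaded with 2 μM Fluo-4 AM for 45 min and read on FLIPR at 37° C in HBSS-HEPES pH 7.4. Peak fluorescence rise was expressed relative to buffer and standard agonist controls (BW245C, PGE2 or U-46619 by receptor); compounds were run 10^−5 to 10^−11 M in duplicate, n≧3.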

[2] = molecular target: T2, HEK-EBNA cells expressing a PG EP2 receptor subtype (Homo sapiens, UniProt P43116); test: cAMP assay, EP2; type: cell-based
T2 construct: expressed in transfected cells; host or cells: HEK-EBNA
Procedure: A 384-well drug plate was prepared to contain 6 test compounds, PGE2 and cAMP in 16 serial dilutions in triplicate, using a Biomek station. HEK-EBNA cells expressing a target PG receptor subtype (EP2 or EP4) were suspended in a stimulation buffer (HBSS, 0.1% BSA, 0.5 mM IBMX and 5 mM HEPES, pH 7.4) in a density of 10^4 cells/5 μl. The reaction was initiated by mixing 5 μL drug dilutions with 5 μl of HEK-EBNA cells in a well, carried out for 30 min at room temperature, and followed by the addition of 5 μl anti-cAMP acceptor beads in the control buffer with Tween-20 (25 mM NaCl, 0.03% Tween-20, 5 mM HEPES, pH7.4). After 30 min in the dark at room temperature, the mixtures were incubated with 15 μl biotinylated-cAMP/strepavidin donor beads in Lysis/Detection buffer (0.1% BSA, 0.3% Tween-20 and 5 mM HEPES, pH7.4) for 45 min at the room temperature. Fluorescence changes were read using a Fusion-alpha HT microplate reader.

[3] = molecular target: T3, EP4 receptors (Homo sapiens, UniProt P35408); test: Radioligand binding ([3H]PGE2), EP4
T3 construct: expressed in transfected cells; host or cells: HEK-293
Procedure, shortened: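 Membranes from HEK-293 cells stably expressing the human receptor, resuspended at 1 mg/ml protein in TME buffer pH 7.4. Competition against 5 nM [3H]PGE2 for 60 min at 25 °C, ended by filtration on GF/B filters; non-specific binding defined with 10^−5 M unlabeled PGE2.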

[4] = read-out: Other Receptors EC50 hEP3A
[5] = unit inferred, read-out: EP2 data cAMP EC50
[6] = unit inferred, read-out: EP4 data KI

T3 sequence (P35408 whole entry): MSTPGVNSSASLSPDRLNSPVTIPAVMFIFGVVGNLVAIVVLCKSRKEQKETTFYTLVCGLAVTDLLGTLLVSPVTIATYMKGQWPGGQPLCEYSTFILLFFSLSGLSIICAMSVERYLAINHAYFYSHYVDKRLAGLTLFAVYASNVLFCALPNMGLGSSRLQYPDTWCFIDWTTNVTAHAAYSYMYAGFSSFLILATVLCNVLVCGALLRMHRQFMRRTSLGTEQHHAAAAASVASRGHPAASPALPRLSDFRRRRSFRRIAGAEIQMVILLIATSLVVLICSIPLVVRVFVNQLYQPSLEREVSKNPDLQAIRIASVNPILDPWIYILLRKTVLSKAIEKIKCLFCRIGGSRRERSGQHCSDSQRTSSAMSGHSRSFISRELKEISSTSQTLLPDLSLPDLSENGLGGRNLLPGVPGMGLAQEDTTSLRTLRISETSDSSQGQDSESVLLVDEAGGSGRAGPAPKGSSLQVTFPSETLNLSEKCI
T2 sequence (P43116 whole entry): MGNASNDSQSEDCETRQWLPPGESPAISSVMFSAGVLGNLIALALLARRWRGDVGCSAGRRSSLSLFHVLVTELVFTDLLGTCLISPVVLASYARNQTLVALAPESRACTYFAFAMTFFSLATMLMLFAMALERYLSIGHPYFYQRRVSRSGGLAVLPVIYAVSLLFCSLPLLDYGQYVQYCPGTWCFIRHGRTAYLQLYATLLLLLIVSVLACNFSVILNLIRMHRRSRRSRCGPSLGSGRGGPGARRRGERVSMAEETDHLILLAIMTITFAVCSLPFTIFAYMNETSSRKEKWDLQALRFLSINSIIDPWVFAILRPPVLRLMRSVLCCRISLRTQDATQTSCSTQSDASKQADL

| SMILES | EC50 ([1]; Table 3, third part, read-out: Ca2+ Signal-EC50 (nM) EP3) [nM] | EC50 ([2]; Table 3, third part, value in parentheses, read-out: EP2 EC50 in a cAMP mediated assay) [nM] | Ki ([3]; Table 3, third part, read-out: BINDING-Ki (nM) EP4) [nM] | EC50 [1, 4] [nM] | EC50 [2, 5] [nM] | Ki [3, 6] [nM] |
| --- | --- | --- | --- | --- | --- | --- |
| CCCCCC(C)c1ccc([C@@H]2[C@@H](C/C=C\CCCC(=O)O)[C@H](C#N)C[C@H]2C)cc1 (stereo partly drawn) | 10000 | 4 | > 10000 |  |  |  |
| CCCCCC(=O)c1ccc(N2C(=O)CC[C@@H]2CCCc2ccc(C(=O)O)s2)cc1 |  |  |  | 2340 | 1.6 | > 10000 |
| CCCCCC(O)c1ccc(N2C(=O)CC[C@@H]2CCCc2ccc(C(=O)O)s2)cc1 (single isomer, unassigned) [drawing 151] |  |  |  | 156 | 0.15 |  |
| CCCCCCC(O)c1ccc(N2C(=O)CC[C@@H]2CCCc2ccc(C(=O)O)s2)cc1 (single isomer, unassigned) [drawing 155] |  |  |  | 7 | 1.4 |  |
| CCCCCCC(O)c1ccc(N2C(=O)CC[C@@H]2CCCc2ccc(C(=O)O)s2)cc1 (single isomer, unassigned) [drawing 156] |  |  |  | 33 | 0.6 |  |
| CCCCCC(O)c1ccc(N2C(=O)CC[C@@H]2CCCc2ccc(C(=O)O)s2)cc1 (single isomer, unassigned) [drawing 178] |  |  |  | 12 | 0.19 | > 10000 |
| CCCCCCC(O)c1ccc(N2C(=O)CC[C@@H]2CCCc2ccc(C(=O)O)s2)cc1 (single isomer, unassigned) [drawing 183] |  |  |  | 7 | 1.4 |  |
| CCCCCCC(O)c1ccc(N2C(=O)CC[C@@H]2CCCc2ccc(C(=O)O)s2)cc1 (single isomer, unassigned) [drawing 184] |  |  |  | 33 | 0.6 |  |

More lines, now with the values ahead:

| EC50 ([1]; Table 3, third part, read-out: Ca2+ Signal-EC50 (nM) EP3) [nM] | EC50 ([2]; Table 3, third part, value in parentheses, read-out: EP2 EC50 in a cAMP mediated assay) [nM] | Ki ([3]; Table 3, third part, read-out: BINDING-Ki (nM) EP4) [nM] | EC50 [1, 4] [nM] | EC50 [2, 5] [nM] | Ki [3, 6] [nM] | SMILES |
| --- | --- | --- | --- | --- | --- | --- |
|  |  |  | > 10000 | 28 | > 10000 | CC(C)(C)c1ccc(N2C(=O)CC[C@@H]2COCc2ccc(C(=O)O)o2)cc1 |
|  |  |  | 19200 | 51 | > 10000 | CC(C)(C)c1ccc(N2C(=O)CC[C@@H]2COCc2ccc(C(=O)O)s2)cc1 |
|  |  |  | 19500 | 548 | > 10000 | CC(C)(C)c1ccc(N2C(=O)CC[C@@H]2CCCCCCC(=O)O)cc1 |
|  |  |  | 153 | 5 | > 10000 | CCCCCC(O)c1ccc(N2C(=O)CC[C@@H]2COCc2ccc(C(=O)O)s2)cc1 (single isomer, unassigned) [drawing 148] |
|  |  |  | 71 | 7 |  | CCCCCCC(O)c1ccc(N2C(=O)CC[C@@H]2COCc2ccc(C(=O)O)s2)cc1 (single isomer, unassigned) [drawing 152] |
|  |  |  | 153 | 5 | > 10000 | CCCCCC(O)c1ccc(N2C(=O)CC[C@@H]2COCc2ccc(C(=O)O)s2)cc1 (single isomer, unassigned) [drawing 176] |
|  |  |  | 1200 | 1.5 | 6030 | CCCCCC(O)c1ccc(N2C(=O)CC[C@@H]2COCc2ccc(C(=O)O)s2)cc1 (single isomer, unassigned) [drawing 177] |
|  |  |  | 156 | 0.15 | 4850 | CCCCCC(O)c1ccc(N2C(=O)CC[C@@H]2CCCc2ccc(C(=O)O)s2)cc1 (single isomer, unassigned) [drawing 179] |
|  |  |  | 71 | 7 | 3840 | CCCCCC(O)c1ccc(N2C(=O)CC[C@@H]2CCCc2ccc(C(=O)O)s2)cc1 (single isomer, unassigned) [drawing 180] |
|  |  |  | 155 | 0.55 | > 10000 | CCCCCC(O)c1ccc(N2C(=O)CC[C@@H]2CCCc2ccc(C(=O)O)s2)cc1 (stereo partly drawn) [drawing 145] |
|  |  |  | 155 | 0.55 | > 10000 | CCCCCC(O)c1ccc(N2C(=O)CC[C@@H]2CCCc2ccc(C(=O)O)s2)cc1 (stereo partly drawn) [drawing 173] |
